# Results as given in article PMC9532755, “Impact of lactisole on the time-intensity profile of selected sweeteners in dependence of the binding site” (Food Chemistry: X, 2022).
# Peptide text beside a SMILES is read from it.
# Target: T1, human sweet taste receptor TAS1R2/TAS1R3 (Homo sapiens, UniProt Q7RTX0+Q8TE23)
# T1 construct: expressed in transfected cells; host or cells: HEK293 Flp-In T-Rex cells; Gα15Gi3 and TAS1R2 constitutive, TAS1R3 tetracycline-inducible
# T1 sequence (Q8TE23 20-839): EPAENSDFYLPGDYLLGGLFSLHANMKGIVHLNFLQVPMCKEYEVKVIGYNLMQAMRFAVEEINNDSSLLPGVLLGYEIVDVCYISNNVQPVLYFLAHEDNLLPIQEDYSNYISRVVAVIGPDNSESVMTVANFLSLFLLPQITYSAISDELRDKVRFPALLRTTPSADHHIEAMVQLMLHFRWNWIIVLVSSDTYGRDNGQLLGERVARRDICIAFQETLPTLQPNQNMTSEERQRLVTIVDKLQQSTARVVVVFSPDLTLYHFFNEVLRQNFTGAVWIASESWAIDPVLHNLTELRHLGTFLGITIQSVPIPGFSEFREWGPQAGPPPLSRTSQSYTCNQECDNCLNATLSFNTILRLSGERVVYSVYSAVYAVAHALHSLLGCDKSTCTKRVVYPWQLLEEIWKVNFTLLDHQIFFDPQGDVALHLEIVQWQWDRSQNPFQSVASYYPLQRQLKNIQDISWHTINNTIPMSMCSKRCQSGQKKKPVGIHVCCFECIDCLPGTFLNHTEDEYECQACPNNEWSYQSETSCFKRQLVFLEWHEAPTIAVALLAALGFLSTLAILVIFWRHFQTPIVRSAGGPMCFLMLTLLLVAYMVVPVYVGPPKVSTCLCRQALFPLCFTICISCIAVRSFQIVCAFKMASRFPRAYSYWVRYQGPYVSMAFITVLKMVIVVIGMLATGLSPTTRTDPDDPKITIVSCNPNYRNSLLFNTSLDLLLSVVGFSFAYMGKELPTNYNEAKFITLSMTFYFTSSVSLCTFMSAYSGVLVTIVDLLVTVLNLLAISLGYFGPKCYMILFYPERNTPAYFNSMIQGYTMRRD
# T1 sequence (Q7RTX0 21-852): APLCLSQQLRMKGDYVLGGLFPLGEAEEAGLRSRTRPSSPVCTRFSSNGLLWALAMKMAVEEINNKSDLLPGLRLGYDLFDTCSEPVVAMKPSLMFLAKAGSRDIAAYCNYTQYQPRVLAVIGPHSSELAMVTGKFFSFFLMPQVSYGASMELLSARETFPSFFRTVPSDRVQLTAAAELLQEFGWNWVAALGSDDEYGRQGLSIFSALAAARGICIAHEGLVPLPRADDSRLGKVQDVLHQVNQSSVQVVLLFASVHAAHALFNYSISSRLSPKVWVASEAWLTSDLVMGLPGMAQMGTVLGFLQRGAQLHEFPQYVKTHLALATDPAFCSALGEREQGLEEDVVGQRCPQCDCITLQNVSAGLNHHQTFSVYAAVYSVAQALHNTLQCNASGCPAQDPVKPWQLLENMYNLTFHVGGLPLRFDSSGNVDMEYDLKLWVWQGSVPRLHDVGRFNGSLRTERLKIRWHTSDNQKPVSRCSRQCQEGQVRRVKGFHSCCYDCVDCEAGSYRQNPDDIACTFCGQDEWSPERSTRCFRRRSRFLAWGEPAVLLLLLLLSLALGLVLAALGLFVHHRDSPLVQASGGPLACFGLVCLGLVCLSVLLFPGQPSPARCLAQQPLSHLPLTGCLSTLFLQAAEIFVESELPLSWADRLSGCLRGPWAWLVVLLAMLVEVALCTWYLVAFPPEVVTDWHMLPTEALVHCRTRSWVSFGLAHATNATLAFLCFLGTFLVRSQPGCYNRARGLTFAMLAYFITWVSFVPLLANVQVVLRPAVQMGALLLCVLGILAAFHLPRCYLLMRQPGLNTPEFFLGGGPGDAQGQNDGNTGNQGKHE
# Assay: Calcium mobilization assay in HEK293 Flp-In T-Rex-Gα15Gi3-TAS1R2/TAS1R3 cells (FLIPR, Fluo-4)
# Type: cell-based
# Conditions: for mode of inhibition by lactisole (shift of dose-response curve), cell experiments: combination with 10, 30, 100 μM lactisole; for time until reaching peak activity after agonist application / time where signal decreased below 50 % of the maximum signal amplitude, after agonist application: counted from agonist application at 20 sec; for time until reaching peak activity after agonist application / time where signal decreased below 50 % of the maximum signal amplitude, after agonist application / time until reaching the peak amplitude / time where signal decreased below 50 % of the maximum signal amplitude / time of signal decay back to baseline / time signal stayed above initial baseline: 1 mM Ace K, 3 mM aspartame, 10 mM cyclamate, 0.3 mM NHDC; for time until reaching the peak amplitude: including 20 sec of baseline monitoring prior to agonist application; for time where signal decreased below 50 % of the maximum signal amplitude: including 20 sec of baseline monitoring; for time of signal decay back to baseline / time signal stayed above initial baseline: raw fluorescence traces; for EC50: w/o lactisole, agonist concentrations on x-axis in mM, 3 independent experiments in duplicates, read-out: EC50 of TAS1R2/TAS1R3 activation (ΔF/F)
# Experimental: For the functional characterization of the human sweet taste receptor, we used HEK293 Flp-In T-Rex cells stably transfected with the G protein chimera Gα15Gi3, and the two subunits of the human sweet taste receptor, TAS1R2 and TAS1R3 ([Galindo-Cuspinera et al., 2006]). The G protein chimera and TAS1R2 subunit are constitutively expressed, whereas the expression of the TAS1R3 subunit is inducible through addition of 0.5 µg/mL tetracycline. The experiments were done exactly as before ([Behrens et al., 2017], [Ben Abu et al., 2021]). Briefly, cells were seeded into 96-well plates (black, flat clear bottom) treated with 10 µg/mL poly-D-lysine and grown in low-glucose DMEM supplemented with 10 % fetal bovine serum, 100 U Penicillin/mL, 0.1 mg/mL Streptomycin, 2 mM L-glutamine, at 37 °C, 5 % CO2, saturated air-humidity overnight. About 24 h before the experiment tetracycline was added to induce TAS1R3 expression. Next, cells were loaded for 1 h with Fluo-4 am in the presence of 2.5 mM probenecid and washed twice with C1-buffer (130 mM NaCl, 5 mM KCl, 10 mM HEPES, 1 mM sodium pyruvate, and 2 mM CaCl2, pH 7.4). Then, plates were placed in a fluorometric imaging plate reader (FLIPR^tetra, Molecular Devices, San Jose, CA, United States) for automated compound application and measurement of fluorescence changes. Fluorescence changes of control wells not induced with tetracycline were subtracted from the data. Next, measurements were corrected for background fluorescence. Dose-response relationships of three independent experiments each performed in duplicates were calculated with SigmaPlot 14.0 software using the function f(x) = min+(max − min)/(1+(x/EC50)^nH).
# TI-ratings were recorded and analyzed using the software EyeQuestion® 4.11.74 (Logic8 BV, NL) online and MS Excel 16.0 (Microsoft Corporation, USA). The statistical analysis and graphical representation were performed with GraphPad Prism 9.0 for sensory results and with SigmaPlot 14.0 for cell experiments. To evaluate the sensory dose–response effects of ascending sweetener concentration w/o lactisole, an asymmetrical five-parameter curve (Richard́s five-parameter dose–response curve) was fitted. The data are presented as means ± SEM from at least 16 single evaluations. Statistical significance between the different test compounds and concentration-dependent effects was assessed by two-way ANOVAs with Tukey post hoc test using Graph Pad Prism. The normal distribution of the data sets was checked by evaluation of the kurtosis (between −7 to + 7) and the skewness (between −3 to + 3). Equal variance was tested using Levenés test. In case the assumptions of a normal distribution and equal variance were not met, the non-parametric ANOVA on ranks (Kruskal-Wallis Test) with Dunn's post-hoc test without the calculation of interaction was applied. A Pearson product moment correlation was conducted to investigate relationships between sensory results and cell responses of the tested sweeteners.
Structure (SMILES),"mode of inhibition by lactisole (shift of dose-response curve), cell experiments",time until reaching peak activity after agonist application [s],"time where signal decreased below 50 % of the maximum signal amplitude, after agonist application [s]",time until reaching the peak amplitude [s],time where signal decreased below 50 % of the maximum signal amplitude [s],time of signal decay back to baseline / time signal stayed above initial baseline,EC50 [mM]
"COc1ccc(CCC(=O)c2c(O)cc(O[C@@H]3O[C@H](CO)[C@@H](O)[C@H](O)[C@H]3O[C@@H]3O[C@@H](C)[C@H](O)[C@@H](O)[C@H]3O)cc2O)cc1O [NHDC, neohesperidin dihydrochalcone]",competitive inhibition,27,87,47,107,≥ 6 min,0.05 ± 0.01
CC1=CC(=O)NS(=O)(=O)O1 [acesulfame K],Allosteric inhibition,27,65,47,85,about 3 min,0.36 ± 0.04
COC(=O)[C@H](Cc1ccccc1)NC(=O)[C@@H](N)CC(=O)O [aspartame] (H-Asp-Phe-OMe),Allosteric inhibition,23,73,43,93,≥ 6 min,0.33 ± 0.02
O=S(=O)(O)NC1CCCCC1 [cyclamate],competitive inhibition,19,73,39,93,≥ 6 min,1.51 ± 0.11
